Test results as given in patent US20140308317A1, “Polymeric Compounds And Methods Of Making And Using The Same” (CELLCEUTIX CORPORATION, priority 2012, published 2014).
In brackets after ≈: the same amount, converted by molar mass.

What was measured:
E. Coli ATCC 25922 = experiment: Minimum Inhibitory Concentration (MIC), modified microbroth dilution; assay type: cell-based; details: E. coli (25922), overnight incubation (18 hours); for MIC50: Escherichia coli, ATCC25922, read-out: MIC50 E. coli
[1] = system: Staphylococcus aureus ATCC 27660; experiment: as above; assay type: cell-based; details: S. aureus (27660), overnight incubation (18 hours); for MIC50: Staphylococcus aureus, ATCC27660, read-out: MIC50 S. aureus
[2] = system: Enterococcus faecalis ATCC 29212; experiment: as above; assay type: cell-based; details: E. faecalis (29212), overnight incubation (18 hours); for MIC50: Enterococcus faecalis, ATCC29212, read-out: MIC50 E. faecalis
[3] = system: Pseudomonas aeruginosa ATCC 10145; experiment: as above; assay type: cell-based; details: P. aeruginosa (10145), overnight incubation (18 hours); for MIC50: Pseudomonas aeruginosa, ATCC10145, read-out: MIC50 P. Aeruginosa
[4] = system: Klebsiella pneumoniae ATCC 13883; experiment: as above; assay type: cell-based; details: K. pneumoniae (13883), overnight incubation (18 hours); for MIC50: Klebsiella pneumoniae, ATCC13883, read-out: MIC50 K. Pnuemnoiae
[5] = Cytotoxicity colorimetric (tetrazolium) assay; assay type: cell-based, mouse; details: mouse, NIH/3T3 cells (CRL-1658), NIH/3T3 cells; one hour with compound in serum-free media
Description: (§1) Cytotoxicity of the compounds was evaluated in a colorimetric assay using a transformed human liver cell line (HepG2, HB-8065) and an embryonic mouse cell line (NIH/3T3 cells, CRL-1658). This assay measures the bioreduction of a novel tetrazolium compound to a soluble formazan product by viable cells. HepG2 cells were seeded in 96 well plates at 2×10^4 cells/well in MEM medium with 10% fetal bovine serum (FBS) 24 hours prior to use. NIH/3T3 cells were seeded in 96 well plates at 2×10^4 cells/well in DMEM medium with 10% bovine calf serum (BCS) 24 hours prior to use. Cell monolayers were rinsed in serum-free media and incubated for one hour with compounds in serum-free media. After incubation, the media is replaced with serum supplemented media and live cells were measured using the Cell Titer 96 Aqueous […] Assay kit (Promega, Madison, Wis.). EC50 values were determined using a four parameter logistic equation: Y=Bottom+(Top-Bottom)/(1+10̂((LogEC50−X)*HillSlope)).
(§2) Actual results from a representative cytotoxicity assay are shown below in Table 2. Data is expressed as EC50 in μg/mL.

[6] = Cytotoxicity colorimetric (tetrazolium) assay; assay type: cell-based, human; details: human, HepG2 cells (HB-8065), HepG2 cells; one hour with compound in serum-free media
Description: as §1, §2

| MIC50 (E. Coli ATCC 25922) | MIC50 [1] | MIC50 [2] | MIC50 [3] | MIC50 [4] | SMILES | MIC50 E. coli (E. Coli ATCC 25922) | MIC50 S. aureus [1] | MIC50 E. faecalis [2] | MIC50 P. Aeruginosa [3] | MIC50 K. Pnuemnoiae [4] | EC50 at 1 h [5] | EC50 at 1 h [6] |
| --- | --- | --- | --- | --- | --- | --- | --- | --- | --- | --- | --- | --- |
| – | – | – | – | – | N=C(N)NCCCOc1cc(-c2ccc3sc4ccc(-c5cc(OCCCNC(=N)N)c(OCCCNC(=N)N)c(OCCCNC(=N)N)c5)cc4c3c2)cc(OCCCNC(=N)N)c1OCCCNC(=N)N [Compound 186] | 12.5 µg/mL (≈ 12.2 µM) | 0.78 µg/mL (≈ 0.759 µM) | 3.13 µg/mL (≈ 3.05 µM) | 12.5 µg/mL (≈ 12.2 µM) | 6.25 µg/mL (≈ 6.08 µM) | – | – |
| 0.78 µg/mL (≈ 1.26 µM) | 0.78 µg/mL (≈ 1.26 µM) | 12.5 µg/mL (≈ 20.2 µM) | 12.5 µg/mL (≈ 20.2 µM) | 12.5 µg/mL (≈ 20.2 µM) | N=C(N)NC/C=C/c1cc(/C=C/CNC(=N)N)cc(-c2cccc(-c3cc(/C=C/CNC(=N)N)cc(/C=C/CNC(=N)N)c3)c2)c1 [Compound 118] | – | – | – | – | – | – | – |
| – | – | – | – | – | NCCn1cc(-c2cccc(-c3cn(CCN)nn3)c2)nn1 [Compound 109] | >100 µg/mL | >100 µg/mL | >100 µg/mL | >100 µg/mL | >100 µg/mL | – | – |
| – | – | – | – | – | N=C(N)NCCCOc1cc(OCCCNC(=N)N)c(-c2ccc(F)c(F)c2)cc1-c1ccc(F)c(F)c1 [Compound 119] | – | – | – | – | – | 113 µg/mL (≈ 213 µM) | – |
| – | – | – | – | – | NCCNc1ccc(-c2ccc3sc4ccc(-c5ccc(NCCN)cc5)cc4c3c2)cc1 [Compound 173] | 6.25 µg/mL (≈ 13.8 µM) | 0.195 µg/mL (≈ 0.431 µM) | 1.56 µg/mL (≈ 3.45 µM) | >50 µg/mL | 3.13 µg/mL (≈ 6.92 µM) | – | – |
| > 100 µg/mL | 50 µg/mL (≈ 149 µM) | > 100 µg/mL | > 100 µg/mL | > 100 µg/mL | N=C(N)Nc1ccc(-c2nnc(-c3ccc(NC(=N)N)cc3)o2)cc1 [Compound 127] | – | – | – | – | – | – | – |
| – | – | – | – | – | N=C(N)NCCCOc1cc(OCCCNC(=N)N)c(-c2cc(F)c(F)c(F)c2)cc1-c1cc(F)c(F)c(F)c1 [Compound 120] | – | – | – | – | – | 99 µg/mL (≈ 174 µM) | – |
| 3.13 µg/mL (≈ 5.13 µM) | 0.78 µg/mL (≈ 1.28 µM) | 0.78 µg/mL (≈ 1.28 µM) | 6.25 µg/mL (≈ 10.2 µM) | 12.5 µg/mL (≈ 20.5 µM) | N=C(N)NCC#Cc1cc(C#CCNC(=N)N)cc(-c2cccc(-c3cc(C#CCNC(=N)N)cc(C#CCNC(=N)N)c3)c2)c1 [Compound 123] | – | – | – | – | – | 115 µg/mL (≈ 188 µM) | – |
| 0.78 µg/mL (≈ 1.11 µM) | 0.78 µg/mL (≈ 1.11 µM) | 1.56 µg/mL (≈ 2.21 µM) | 12.5 µg/mL (≈ 17.7 µM) | 3.13 µg/mL (≈ 4.44 µM) | NCCCN1c2ccc(NC(=O)Nc3ccc4c(c3)Sc3ccc(C(F)(F)F)cc3N4CCCN)cc2Sc2ccc(C(F)(F)F)cc21 [Compound 143] | – | – | – | – | – | – | – |
| – | – | – | – | – | Cl.Cl.NCCCc1cccc(-c2cccc(-c3cccc(CCCN)c3)c2)c1 [Compound 110] | 25 µg/mL | 25 µg/mL | 100 µg/mL | 100 µg/mL | 100 µg/mL | – | – |
| 12.5 µg/mL (≈ 32.7 µM) | 12.5 µg/mL (≈ 32.7 µM) | – | 100 µg/mL (≈ 262 µM) | 25 µg/mL (≈ 65.4 µM) | NCCCn1c2cc(Br)ccc2c2ccc(Br)cc21 [Compound 106] | – | – | – | – | – | 107 µg/mL (≈ 280 µM) | 61.9 µg/mL (≈ 162 µM) |
| 50 µg/mL (≈ 113 µM) | 50 µg/mL (≈ 113 µM) | 25 µg/mL (≈ 56.5 µM) | 50 µg/mL (≈ 113 µM) | > 50 µg/mL | NCC#Cc1cc(C#CCN)cc(-c2cccc(-c3cc(C#CCN)cc(C#CCN)c3)c2)c1 [Compound 124] | – | – | – | – | – | 192 µg/mL (≈ 435 µM) | – |
| – | – | – | – | – | NCCCn1c2ccccc2c2ccccc21 [Compound 105] | >100 µg/mL | >100 µg/mL | >100 µg/mL | >100 µg/mL | >100 µg/mL | – | – |
| 3.13 µg/mL (≈ 5.16 µM) | 0.39 µg/mL (≈ 0.643 µM) | 12.5 µg/mL (≈ 20.6 µM) | 12.5 µg/mL (≈ 20.6 µM) | 12.5 µg/mL (≈ 20.6 µM) | NCCCn1c2cc(-c3cccc(CN(CCN)CCN)c3)ccc2c2ccc(-c3cccc(CN(CCN)CCN)c3)cc21 [Compound 178] | – | – | – | – | – | – | 228 µg/mL (≈ 376 µM) |
| 6.25 µg/mL (≈ 8.5 µM) | 0.39 µg/mL (≈ 0.531 µM) | 0.78 µg/mL (≈ 1.06 µM) | 12.5 µg/mL (≈ 17 µM) | 3.13 µg/mL (≈ 4.26 µM) | N=C(N)NCCc1cc(CCNC(=N)N)cc(-c2ccc(-c3cccc(-c4ccc(-c5cc(CCNC(=N)N)cc(CCNC(=N)N)c5)s4)c3)s2)c1 [Compound 139] | – | – | – | – | – | – | – |
| – | – | – | – | – | CCn1c2ccc(-c3cccc(N)c3)cc2c2cc(-c3cccc(N)c3)ccc21 [Compound 176] | 12.5 µg/mL (≈ 33.1 µM) | 0.39 µg/mL (≈ 1.03 µM) | >50 µg/mL | 12.5 µg/mL (≈ 33.1 µM) | >50 µg/mL | – | – |
